The record followed here is patent US20180271858A1, “SOLUTION FOR ORAL ADMINISTRATION” (OTSUKA PHARMACEUTICAL CO., LTD., priority 2011, published 2018).

The series is described as follows: solubility in water (statement in the background section). The class given is physicochemical. The conditions noted are these: compound (I) or a salt thereof.

Structures are written as SMILES.

Turning to `O=c1ccc2ccc(OCCCCN3CCN(c4cccc5sccc45)CC3)cc2[nH]1` [compound (I), 7-[4-(4-benzo[b]thiophen-4-yl-piperazin-1-yl)butoxy]-1H-quinolin-2-one], the solubility in water result is “hardly soluble in water”.
